Experimental data as given in patent publication US20080269240A1, “Novel Adenine Compound” (priority 2005, published 2008).
pEC50: −log10 of the molar value.

target: T1, human TLR7 (Homo sapiens, UniProt Q9NYK1); test: Human TLR7 reporter assay (NF-kB-SEAP) in HEK293 cells; format: cell-based; settings: HEK293 cells stably introduced with human TLR7 plasmid and NF-kB-SEAP reporter plasmid; cultured 20 hours with compound (1 nM-10 μM); absorbance 405 nm; read-out: Human TLR7 binding activity (EC50)
T1 construct: expressed in transfected cells; host or cells: HEK293 (hTLR7/seap-293)
T1 sequence (Q9NYK1 27-1049): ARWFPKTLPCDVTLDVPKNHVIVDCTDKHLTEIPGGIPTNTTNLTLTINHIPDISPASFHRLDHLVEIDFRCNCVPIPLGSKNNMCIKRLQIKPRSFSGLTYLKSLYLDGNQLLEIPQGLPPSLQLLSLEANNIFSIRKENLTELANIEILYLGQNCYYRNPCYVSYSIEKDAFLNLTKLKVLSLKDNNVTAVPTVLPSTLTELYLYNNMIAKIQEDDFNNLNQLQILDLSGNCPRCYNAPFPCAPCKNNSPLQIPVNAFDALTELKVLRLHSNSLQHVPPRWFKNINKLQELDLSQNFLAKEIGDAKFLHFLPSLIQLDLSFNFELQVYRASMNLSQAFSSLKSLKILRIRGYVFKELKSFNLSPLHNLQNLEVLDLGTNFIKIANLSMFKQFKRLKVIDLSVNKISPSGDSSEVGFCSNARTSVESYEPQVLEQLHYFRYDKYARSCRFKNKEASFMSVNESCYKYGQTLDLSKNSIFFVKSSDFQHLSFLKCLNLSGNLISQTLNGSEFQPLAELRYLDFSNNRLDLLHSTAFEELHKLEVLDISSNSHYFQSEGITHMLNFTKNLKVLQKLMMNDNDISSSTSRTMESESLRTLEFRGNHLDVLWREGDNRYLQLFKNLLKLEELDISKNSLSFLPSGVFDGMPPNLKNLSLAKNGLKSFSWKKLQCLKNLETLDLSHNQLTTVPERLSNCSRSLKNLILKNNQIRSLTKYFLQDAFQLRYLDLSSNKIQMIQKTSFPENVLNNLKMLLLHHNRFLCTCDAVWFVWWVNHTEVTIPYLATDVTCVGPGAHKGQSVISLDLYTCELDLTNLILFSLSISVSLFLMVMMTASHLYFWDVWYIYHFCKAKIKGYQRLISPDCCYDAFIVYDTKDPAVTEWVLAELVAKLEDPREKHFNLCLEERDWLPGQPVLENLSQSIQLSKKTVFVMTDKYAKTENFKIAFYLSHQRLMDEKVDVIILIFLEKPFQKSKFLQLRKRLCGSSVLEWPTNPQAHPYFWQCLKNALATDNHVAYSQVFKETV
Experimental: Human TLR7 Reporter Assay
HEK293 cells in which human TLR7 or rat TLR7 plasmid and reporter plasmid (NF-kB-SEAP) are stably introduced are dispersed in DMEM broth (10% FBS, 1% NEAA, 10 ug/mL blastocidin S HCl, 100 ug/mL Zeocin), and were seeded to 96 well plate per 90 μl/well (hTLR7/seap-293: 20000 cells/well, rTLR7/seap-293:25000 cells/well).
Test compound (DMSO stock solution (2 μl) was diluted with the broth (200 μl) by 100 times) was added to the seeded cells to a 96 well plate (10 μl/well) (final concentration; 1 nM-10 μM, common ratio). After stirring by tapping side of the plate, the cells were cultured in a CO2 incubator for 20 hours. A substrate (50 μl/well) for reporter assay (substrate for SEAP, pNPP) was added to cells stimulated by test sample. Ten minutes after adding the substrate, the reaction quenching solution (4N NaOH) was added by 50 μl/well to cease enzymatic reaction. Sealing a top seal A on the plate, the absorbance was measured by a micro plate reader (405 nm).

Structure (SMILES)	pEC50
CCCCOc1nc(N)c2[nH]c(=O)n(CCCCCN3CCN(CCOc4cccc(CC(=O)OC)c4)CC3)c2n1 [Example 22]	6.70
CCCCOc1nc(N)c2[nH]c(=O)n(CC3CCN(CCCN(C)Cc4cccc(CC(=O)OC)c4)CC3)c2n1 [Example 1, 2-Butoxy-7,8-dihydro-9-{[2-(3-{N-[(3-methoxycarbonylmethylphenyl-1-yl)methyl]-N-methylamino}propyl)piperidin-4-yl]methyl}-8-oxoadenine]	5.79
CCCCOc1nc(N)c2[nH]c(=O)n(CCC3CCN(CCCN(C)CCOc4cccc(CC(=O)OC)c4)CC3)c2n1 [Example 12, 2-Butoxy-7,8-dihydro-9-{1-[3-([N-methyl-N {2 [3-(methoxycarbonylmethyl)phenoxy]ethyl}]amino)propyl]piperidin-4-ylethyl}-8-oxoadenine]	6.24
CCCCOc1nc(N)c2[nH]c(=O)n(CCC3CCN(CCOc4cccc(CC(=O)OC)c4)CC3)c2n1 [Example 11, 2-Butoxy-7,8-dihydro-9-(1-{2-[3-(methoxycarbonylmethyl)phenoxy]ethyl}piperidin-4-ylethyl)-8-oxoadenine]	6.73
CCCCOc1nc(N)c2[nH]c(=O)n(CCCCCCCN3CCN(CCN(C)Cc4cccc(CC(=O)OC)c4)CC3)c2n1 [Example 21, 2-Butoxy-7,8-dihydro-9-[7-(4-{2-[N-methyl-N-(3-methoxycarbonylmethyl)benzyl]aminomethyl}piperazin-1-yl)heptyl]-8-oxoadenine]	6.35
CCCCOc1nc(N)c2[nH]c(=O)n(CCCCCN3CCN(CCN(C)Cc4cccc(CC(=O)OC)c4)CC3)c2n1 [Example 20, 2-Butoxy-7,8-dihydro-9-[5-(4-{2-[N-methyl-N-(3-methoxycarbonylmethyl)benzyl]aminomethyl}piperazin-1-yl)pentyl]-8-oxoadenine]	6.86
CCCCOc1nc(N)c2[nH]c(=O)n(CCCCCCCN3CCN(CCOc4cccc(CC(=O)OC)c4)CC3)c2n1 [Example 23, 2-Butoxy-7,8-dihydro-9-(7-{4-[2-(3-methoxycarbonylmethylphenyloxy)ethyl]piperazin-1-yl}heptyl)-8-oxoadenine]	7.13
CCCCOc1nc(N)c2[nH]c(=O)n(CCC3CCN(C(=O)CN(C)CCOc4cccc(CC(=O)OC)c4)CC3)c2n1 [Example 18, 2-Butoxy-7,8-dihydro-9-(2-{1-[(N-{2-[3-(methoxylcarbonylmethyl)phenoxy]ethyl)-N-methyl)aminocarbonylmethyl]piperidin-4-yl}ethyl)-8-oxoadenine]	6.55
CCCCOc1nc(N)c2[nH]c(=O)n(CC3CCN(C(=O)CN(C)CCOc4cc(CC(=O)OC)ccc4OC)CC3)c2n1 [Example 19, 2-Butoxy-7,8-dihydro-9-{1-[(N-{2-[2-methoxy-5-(methoxylcarbonylmethyl)phenoxy]ethyl}-N-methyl)aminomethylacarbonyl]piperidin-4-ylmethyl}-8-oxoadenine]	6.19
CCCCOc1nc(N)c2[nH]c(=O)n(CC3CCN(CCCNCc4cccc(CC(=O)OC)c4)CC3)c2n1 [Example 2]	5.73
COCCOc1nc(N)c2[nH]c(=O)n(CC3CCN(CC(=O)N(C)CCOc4cccc(CC(=O)OC)c4)CC3)c2n1 [Example 17, 7,8-Dihydro-2-(2-methoxyethoxy)-9-{1-[(N-(2-[3-(methoxylcarbonylmethyl)phenoxy]ethyl}-N-methyl)aminocarbonylmethyl]piperidin-4-ylmethyl}-8-oxoadenine]	5.25
CCCCOc1nc(N)c2[nH]c(=O)n(CCCCN3CCC(Oc4cccc(CC(=O)OC)c4)CC3)c2n1 [Example 29]	6.15
